According to ChEMBL document CHEMBL1130513, “New hepatoprotective saponins, bupleurosides III, VI, IX, and XIII, from Chinese Bupleuri Radix: Structure-requirements for the cytoprotective activity in primary cultured rat hepatocytes” (1997):

Experiments:
Type in all cases: functional
Details in all cases: Hepatocyte
[1] = organism: Rattus norvegicus; assay: In vitro inhibitory effect on D-Galactosamine induced cytotoxicity in primary cultured rat hepatocytes at 0.3 ug/mL
[2] = organism: Rattus norvegicus; assay: In vitro inhibitory effect on D-Galactosamine induced cytotoxicity in primary cultured rat hepatocytes at 1 ug/mL
[3] = organism: Rattus norvegicus; assay: In vitro inhibitory effect on D-Galactosamine induced cytotoxicity in primary cultured rat hepatocytes at 10 ug/mL
[4] = organism: Rattus norvegicus; assay: In vitro inhibitory effect on D-Galactosamine induced cytotoxicity in primary cultured rat hepatocytes at 3 ug/mL
[5] = organism: Rattus norvegicus; assay: In vitro inhibitory effect on D-Galactosamine induced cytotoxicity in primary cultured rat hepatocytes at 30 ug/mL

| Structure (SMILES) | inhibition at 0.3 µg/mL [1] | inhibition at 1 µg/mL [2] | inhibition at 10 µg/mL [3] | inhibition at 3 µg/mL [4] | inhibition at 30 µg/mL [5] |
| --- | --- | --- | --- | --- | --- |
| C[C@H]1O[C@@H](OC2CC[C@@]3(C)C(CC[C@]4(C)C3C=CC3=C5CC(C)(C)CC[C@]5(CO)[C@H](O)C[C@]34C)[C@]2(C)CO)[C@H](O)[C@@H](O[C@@H]2O[C@H](CO)[C@@H](O)[C@H](O)[C@H]2O)[C@H]1O (stereo not given in full) | 2.7% | 6.1% | 5.5% | 5.3% | 8.4% |
| C[C@H]1O[C@@H](OC2CC[C@@]3(C)C(CC[C@]4(C)C3C=CC3=C5CC(C)(C)CC[C@]5(CO)[C@@H](O)C[C@]34C)[C@]2(C)CO)[C@H](O)[C@@H](O[C@@H]2O[C@H](CO)[C@@H](O)[C@H](O)[C@H]2O)[C@H]1O (stereo not given in full) | 0.1% | -1.4% | 8.7% | 4.3% | -5.1% |
| CO[C@@H]1C=C2C3CC(C)(C)CC[C@]3(CO)[C@@H](O)C[C@@]2(C)[C@]2(C)CCC3[C@](C)(CCC(O[C@@H]4O[C@H](C)[C@H](O)[C@H](O[C@@H]5O[C@H](CO)[C@@H](O)[C@H](O)[C@H]5O)[C@H]4O)[C@@]3(C)CO)C12 (stereo not given in full) | 8.7% | 13.9% | 70.4% | 56.4% | 72.1% |
| CO[C@@H]1C=C2C3CC(C)(C)CC[C@]3(CO)[C@H](O)C[C@@]2(C)[C@]2(C)CCC3[C@](C)(CCC(O[C@@H]4O[C@H](C)[C@H](O)[C@H](O[C@@H]5O[C@H](CO)[C@@H](O)[C@H](O)[C@H]5O)[C@H]4O)[C@@]3(C)CO)C12 (stereo not given in full) | 3.6% | -4% | -8.3% | -6.9% | -9.9% |
| CO[C@@H]1C=C2C3CC(C)(C)CC[C@]3(CO)[C@@H](O)C[C@@]2(C)[C@]2(C)CCC3[C@](C)(CCC(O[C@@H]4O[C@H](CO[C@@H]5O[C@H](CO)[C@@H](O)[C@H](O)[C@H]5O)[C@H](O[C@@H]5O[C@@H](C)[C@H](O)[C@@H](O)[C@H]5O)[C@H](O)[C@H]4O)[C@@]3(C)CO)C12 (stereo not given in full) | 1.5% | 1.2% | 2.9% | 3.5% | 4.8% |
| C[C@H]1O[C@@H](OC2CC[C@@]3(C)C(CC[C@]4(C)C3C=C[C@]35OC[C@@]6(CCC(C)(C)CC63)[C@@H](O)C[C@]54C)C2(C)C)[C@H](O)[C@@H](O[C@@H]2O[C@H](CO)[C@@H](O)[C@H](O)[C@H]2O)[C@H]1O (stereo not given in full) | -12% | -17.1% | -29.2% | -26.9% | -30.6% |
| C[C@H]1O[C@@H](O[C@H]2CC[C@@]3(C)C(CC[C@]4(C)C3C=C[C@]35OC[C@@]6(CCC(C)(C)CC63)[C@@H](O)C[C@]54C)[C@]2(C)CO)[C@H](O)[C@@H](O[C@@H]2O[C@H](CO)[C@@H](O)[C@H](O)[C@H]2O)[C@H]1O (stereo not given in full) | -3.6% | -7.1% | -12.7% | -11.6% | -14.8% |
| C[C@H]1O[C@@H](O[C@H]2CC[C@@]3(C)C(CC[C@]4(C)C3C=C[C@]35OC[C@@]6(CCC(C)(C)CC63)[C@H](O)C[C@]54C)[C@]2(C)CO)[C@H](O)[C@@H](O[C@@H]2O[C@H](CO)[C@@H](O)[C@H](O)[C@H]2O)[C@H]1O (stereo not given in full) | 3.9% | 2.3% | -4.3% | -4.2% | -5.3% |
| CO[C@@H]1C=C2C3CC(C)(C)CC[C@]3(CO)[C@@H](O)C[C@@]2(C)[C@]2(C)CCC3C(C)(C)[C@@H](O[C@@H]4O[C@H](C)[C@H](O)[C@H](O[C@@H]5O[C@H](CO)[C@@H](O)[C@H](O)[C@H]5O)[C@H]4O)CC[C@]3(C)C12 (stereo not given in full) | 37.2% | 64.9% | 73.3% | 75.5% | 75% |
| CO[C@@H]1C=C2C3CC(C)(C)CC[C@]3(CO)[C@H](O)C[C@@]2(C)[C@]2(C)CCC3[C@](C)(CC[C@H](O[C@@H]4O[C@H](C)[C@H](O)[C@H](O[C@@H]5O[C@H](CO)[C@@H](O)[C@H](O)[C@H]5O[C@@H]5O[C@H](CO)[C@@H](O)[C@H](O)[C@H]5O)[C@H]4O)[C@@]3(C)CO)C12 (stereo not given in full) | 1.7% | 0.3% | -2.2% | -0.4% | -2.9% |
| C[C@@H]1O[C@@H](O[C@@H]2[C@H](O)[C@@H](O)[C@H](OC3CC[C@@]4(C)C(CC[C@]5(C)[C@@H]4[C@H](O)C=C4C6CC(C)(C)CC[C@]6(CO)[C@@H](O)C[C@]45C)C3(C)C)O[C@@H]2CO[C@@H]2O[C@H](CO)[C@@H](O)[C@H](O)[C@H]2O)[C@H](O)[C@H](O)[C@H]1O (stereo not given in full) | -2.3% | -5.1% | -3.2% | -3.4% | -6.5% |
| CO[C@@H]1C=C2C3CC(C)(C)CC[C@]3(CO)[C@@H](O)C[C@@]2(C)[C@]2(C)CCC3C(C)(C)C(O[C@@H]4O[C@H](CO[C@@H]5O[C@H](CO)[C@@H](O)[C@H](O)[C@H]5O)[C@H](O[C@@H]5O[C@@H](C)[C@H](O)[C@@H](O)[C@H]5O)[C@H](O)[C@H]4O)CC[C@]3(C)[C@@H]12 (stereo not given in full) | 10.3% | 9.7% | 11.1% | 4.5% | 8.1% |
| C[C@@H]1O[C@@H](O[C@@H]2[C@H](O)[C@@H](O)[C@H](OC3CC[C@@]4(C)C(CC[C@]5(C)[C@@H]4CC=C4C6CC(C)(C)CC[C@]6(CO)[C@@H](O)C[C@]45C)C3(C)C)O[C@@H]2CO[C@@H]2O[C@H](CO)[C@@H](O)[C@H](O)[C@H]2O)[C@H](O)[C@H](O)[C@H]1O (stereo not given in full) | 3.1% | 0.2% | -2.9% | -2.9% | -0.7% |
| CC1(C)CC[C@@]2(CO)C(C1)C1=CC(=O)C3[C@@]4(C)CC[C@H](O)[C@@](C)(CO)C4CC[C@@]3(C)[C@]1(C)C[C@@H]2O (stereo not given in full) | 0.6% | 0.6% | 0.4% | 0% | 4.9% |
| C[C@H]1O[C@@H](O[C@H]2CC[C@@]3(C)C(CC[C@]4(C)C3C=C[C@]35OC[C@@]6(CCC(C)(C)CC63)[C@@H](O)C[C@]54C)[C@]2(C)CO)[C@H](O)[C@@H](O[C@@H]2O[C@H](CO)[C@@H](O)[C@H](O)[C@H]2O[C@@H]2O[C@H](CO)[C@@H](O)[C@H](O)[C@H]2O)[C@H]1O (stereo not given in full) [BUPLEUROSIDE I] | -5.4% | -6.5% | -7.8% | -7.8% | -12.2% |
| CC1(C)CC[C@]2(C(=O)O)CC[C@]3(C)C(=CCC4[C@@]5(C)CC[C@H](O[C@@H]6O[C@H](CO)[C@H](O)[C@H](O[C@@H]7OC[C@@H](O)[C@@H](O)[C@@H]7O[C@@H]7O[C@H](CO)[C@@H](O)[C@H](O)[C@H]7O)[C@H]6O)C(C)(C)C5CC[C@]43C)C2C1 (stereo not given in full) [BUPLEUROSIDE VII1] | 1.5% | 0.1% | -1.4% | -0.9% | -1.4% |
